According to ChEMBL document CHEMBL1126264, “Secondary metabolites by chemical screening. 17. Nigericinol derivatives: synthesis, biological activities, and modeling studies” (1992):
Converted amounts (≈) assume the structure as drawn.

What was measured:
Human alphaherpesvirus 1 = assay: Compound was tested for antimicrobial activity against HSV type 1; format: functional
Staphylococcus aureus [1] = assay: Compound was tested for antimicrobial activity against Staphylococcus aureus SG511
[2] = (§1) Maximum tolerated dose (MTD) of the compound; format: functional; conditions: herpes simplex virus
Human alphaherpesvirus 2 = assay: Compound was tested for antimicrobial activity against HSV type 2; format: functional
Staphylococcus aureus [3] = assay: Compound was tested for antimicrobial activity against Staphylococcus aureus 285
Streptococcus pyogenes [4] = assay: Compound was tested for antimicrobial activity against […] pyogenes 308 A; format: functional
Streptococcus pyogenes [5] = assay: Compound was tested for antimicrobial activity against Streptococcus pyogenes 77A; format: functional, […] pyogenes
Staphylococcus aureus [6] = assay: Compound was tested for antimicrobial activity against Staphylococcus aureus 503
herpes simplex virus = assay: as §1; format: functional

Row | Compound | MIC (Human alphaherpesvirus 1) | MIC (Staphylococcus aureus [1]) | MTD [2] | MIC (Human alphaherpesvirus 2) | MIC (Staphylococcus aureus [3]) | MIC (Streptococcus pyogenes [4]) | MIC (Streptococcus pyogenes [5]) | MIC (Staphylococcus aureus [6]) | MTD (herpes simplex virus)
1 | CO[C@@H]1C[C@@H](C[C@H]2CC[C@H](C)[C@H]([C@@H](C)CO)O2)OC2(O[C@](C)([C@H]3CC[C@@](C)([C@@H]4O[C@@H]([C@H]5O[C@](CO)(OC)[C@H](C)C[C@@H]5C)C[C@@H]4C)O3)C[C@H]2C)[C@@H]1C (stereo partly specified) | 4.94 µg/mL (≈ 6.81 µM) | > 100 µg/mL | 14.5 µg/mL | 0.5 µg/mL (≈ 0.69 µM) | > 100 µg/mL | > 100 µg/mL | > 100 µg/mL | > 100 µg/mL | –
2 | CO[C@@H]1C[C@@H](C[C@H]2CC[C@H](C)[C@H]([C@@H](C)COC(=O)C(C)C)O2)OC2(O[C@](C)([C@H]3CC[C@@](C)([C@@H]4O[C@@H]([C@H]5O[C@@](O)(CO)[C@H](C)C[C@@H]5C)C[C@@H]4C)O3)C[C@H]2C)[C@@H]1C (stereo partly specified) | > 400 µg/mL | > 100 µg/mL | > 400 µg/mL | > 400 µg/mL | > 100 µg/mL | > 100 µg/mL | > 100 µg/mL | > 100 µg/mL | –
3 | CO[C@@H]1C[C@@H](C[C@H]2CC[C@H](C)[C@H]([C@@H](C)CO)O2)OC2(O[C@](C)([C@H]3CC[C@@](C)([C@@H]4O[C@@H]([C@@H](O)[C@@H](C)C[C@@H](C)CO)C[C@@H]4C)O3)C[C@H]2C)[C@@H]1C (stereo partly specified) | 40 µg/mL (≈ 58.6 µM) | 6.25 µg/mL (≈ 9.15 µM) | 40 µg/mL | 133 µg/mL (≈ 195 µM) | 3.13 µg/mL (≈ 4.58 µM) | 1.56 µg/mL (≈ 2.28 µM) | 50 µg/mL (≈ 73.2 µM) | 1.56 µg/mL (≈ 2.28 µM) | –
4 | CO[C@@H]1C[C@@H](C[C@H]2CC[C@H](C)[C@H]([C@@H](C)CO)O2)OC2(O[C@](C)([C@H]3CC[C@@](C)([C@@H]4O[C@@H]([C@H]5O[C@@](O)(CO)[C@H](C)C[C@@H]5C)C[C@@H]4C)O3)C[C@H]2C)[C@@H]1C (stereo partly specified) | < 0.18 µg/mL | > 100 µg/mL | 14.8 µg/mL | < 0.18 µg/mL | 6.25 µg/mL (≈ 8.79 µM) | 1.56 µg/mL (≈ 2.19 µM) | 1.56 µg/mL (≈ 2.19 µM) | 3.13 µg/mL (≈ 4.4 µM) | –
5 | CO[C@@H]1C[C@@H](C[C@H]2CC[C@H](C)[C@H]([C@@H](C)C(=O)OCOCC[Si](C)(C)C)O2)OC2(O[C@](C)([C@H]3CC[C@@](C)([C@@H]4O[C@@H]([C@H]5O[C@](COCOCC[Si](C)(C)C)(OCOCC[Si](C)(C)C)[C@H](C)C[C@@H]5C)C[C@@H]4C)O3)C[C@H]2C)[C@@H]1C (stereo partly specified) | 4.44 µg/mL (≈ 3.98 µM) | > 100 µg/mL | – | 13.3 µg/mL (≈ 11.9 µM) | > 100 µg/mL | > 100 µg/mL | > 100 µg/mL | > 100 µg/mL | > 40 µg/mL
6 | CO[C@@H]1C[C@@H](C[C@H]2CC[C@H](C)[C@H]([C@@H](C)CO)O2)OC2(O[C@](C)([C@H]3CC[C@@](C)([C@@H]4O[C@@H]([C@H]5O[C@](COCOCC[Si](C)(C)C)(OCOCC[Si](C)(C)C)[C@H](C)C[C@@H]5C)C[C@@H]4C)O3)C[C@H]2C)[C@@H]1C (stereo partly specified) | > 400 µg/mL | > 100 µg/mL | – | > 400 µg/mL | > 100 µg/mL | 50 µg/mL (≈ 51.5 µM) | 50 µg/mL (≈ 51.5 µM) | > 100 µg/mL | > 400 µg/mL
7 | CO[C@@H]1C[C@@H](C[C@H]2CC[C@H](C)[C@H]([C@@H](C)CO)O2)OC2(O[C@](C)([C@H]3CC[C@@](C)([C@@H]4O[C@@H]([C@H]5O[C@](COC(=O)C(C)C)(OC)[C@H](C)C[C@@H]5C)C[C@@H]4C)O3)C[C@H]2C)[C@@H]1C (stereo partly specified) | > 400 µg/mL | > 100 µg/mL | > 400 µg/mL | > 400 µg/mL | > 100 µg/mL | > 100 µg/mL | > 100 µg/mL | > 100 µg/mL | –
8 | CO[C@@H]1C[C@@H](C[C@H]2CC[C@H](C)[C@H]([C@@H](C)C(=O)O)O2)OC2(O[C@](C)([C@H]3CC[C@@](C)([C@@H]4O[C@@H]([C@H]5OC(=O)[C@H](C)C[C@@H]5C)C[C@@H]4C)O3)C[C@H]2C)[C@@H]1C (stereo partly specified) | 4.44 µg/mL (≈ 6.41 µM) | 50 µg/mL (≈ 72.2 µM) | 40 µg/mL | 13.3 µg/mL (≈ 19.2 µM) | 50 µg/mL (≈ 72.2 µM) | 25 µg/mL (≈ 36.1 µM) | 25 µg/mL (≈ 36.1 µM) | 50 µg/mL (≈ 72.2 µM) | –
9 | CO[C@@H]1C[C@@H](C[C@H]2CC[C@H](C)[C@H]([C@@H](C)CO)O2)OC2(O[C@](C)([C@H]3CC[C@@](C)([C@@H]4O[C@@H]([C@H]5O[C@@](O)(COC(=O)C(C)C)[C@H](C)C[C@@H]5C)C[C@@H]4C)O3)C[C@H]2C)[C@@H]1C (stereo partly specified) | 0.49 µg/mL (≈ 0.627 µM) | 12.5 µg/mL (≈ 16 µM) | – | 0.49 µg/mL (≈ 0.627 µM) | 6.25 µg/mL (≈ 8 µM) | 3.13 µg/mL (≈ 4.01 µM) | 12.5 µg/mL (≈ 16 µM) | 3.13 µg/mL (≈ 4.01 µM) | –
10 | CO[C@@H]1C[C@@H](C[C@H]2CC[C@H](C)[C@H]([C@@H](C)C(=O)O)O2)OC2(O[C@](C)([C@H]3CC[C@@](C)([C@@H]4O[C@@H]([C@H]5O[C@](COC(=O)C(C)C)(OC)[C@H](C)C[C@@H]5C)C[C@@H]4C)O3)C[C@H]2C)[C@@H]1C (stereo partly specified) | > 400 µg/mL | > 100 µg/mL | > 400 µg/mL | > 400 µg/mL | 100 µg/mL (≈ 124 µM) | 25 µg/mL (≈ 30.9 µM) | > 100 µg/mL | 25 µg/mL (≈ 30.9 µM) | –
11 | CO[C@@H]1C[C@@H](C[C@H]2CC[C@H](C)[C@H]([C@@H](C)C(=O)O)O2)OC2(O[C@](C)([C@H]3CC[C@@](C)([C@@H]4O[C@@H]([C@H]5O[C@@](O)(CO)[C@H](C)C[C@@H]5C)C[C@@H]4C)O3)C[C@H]2C)[C@@H]1C (stereo partly specified) | < 0.02 µg/mL | 0.098 µg/mL (≈ 0.135 µM) | 1.4 µg/mL | 0.05 µg/mL (≈ 0.069 µM) | 0.098 µg/mL (≈ 0.135 µM) | 0.025 µg/mL (≈ 0.0345 µM) | 0.013 µg/mL (≈ 0.0179 µM) | 0.098 µg/mL (≈ 0.135 µM) | –
12 | CO[C@@H]1C[C@@H](C[C@H]2CC[C@H](C)[C@H]([C@@H](C)C(=O)O)O2)OC2(O[C@](C)([C@H]3CC[C@@](C)([C@@H]4O[C@@H]([C@H]5O[C@@](O)(COC(=O)C(C)C)[C@H](C)C[C@@H]5C)C[C@@H]4C)O3)C[C@H]2C)[C@@H]1C (stereo partly specified) | < 0.02 µg/mL | 0.39 µg/mL (≈ 0.491 µM) | 1.4 µg/mL | < 0.02 µg/mL | 0.39 µg/mL (≈ 0.491 µM) | 0.049 µg/mL (≈ 0.0616 µM) | 0.049 µg/mL (≈ 0.0616 µM) | 0.19 µg/mL (≈ 0.239 µM) | –
13 | CO[C@@H]1C[C@@H](C[C@H]2CC[C@H](C)[C@H]([C@@H](C)C(=O)O)O2)OC2(O[C@](C)([C@H]3CC[C@@](C)([C@@H]4O[C@@H]([C@H]5O[C@](CO)(OC)[C@H](C)C[C@@H]5C)C[C@@H]4C)O3)C[C@H]2C)[C@@H]1C (stereo partly specified) | 0.02 µg/mL (≈ 0.0271 µM) | 1.56 µg/mL (≈ 2.11 µM) | 4.4 µg/mL | 0.5 µg/mL (≈ 0.677 µM) | 1.56 µg/mL (≈ 2.11 µM) | 0.39 µg/mL (≈ 0.528 µM) | 0.39 µg/mL (≈ 0.528 µM) | 1.56 µg/mL (≈ 2.11 µM) | –
14 | CO[C@@H]1C[C@@H](C[C@H]2CC[C@H](C)[C@H]([C@@H](C)CCl)O2)OC2(O[C@](C)([C@H]3CC[C@@](C)([C@@H]4O[C@@H]([C@H]5O[C@@](O)(CCl)[C@H](C)C[C@@H]5C)C[C@@H]4C)O3)C[C@H]2C)[C@@H]1C (stereo partly specified) | 0.02 µg/mL (≈ 0.0267 µM) | 0.39 µg/mL (≈ 0.521 µM) | – | < 0.02 µg/mL | 0.39 µg/mL (≈ 0.521 µM) | 0.098 µg/mL (≈ 0.131 µM) | 0.78 µg/mL (≈ 1.04 µM) | 0.098 µg/mL (≈ 0.131 µM) | 14.8 µg/mL
